{"source": "patent US7709444B2", "about": "“Echinocandin pharmaceutical formulations containing micelle-forming surfactants” (Pfizer Inc., priority 1999, dated 2010)", "key": {"[1]": {"experiment": "Stability of solution formulations, related substances by reverse phase HPLC, storage at 40° C.", "assay_type": "physicochemical", "conditions": "6(a) 10 mg/ml, Poly 80(25), no buffer", "description": "(§1) The stability of solution and freeze-dried formulations was evaluated by monitoring a sample of the formulation for the percent increase in related substances by reverse phase HPLC at initial, 2 weeks and 4 weeks of storage at 40° C."}, "[2]": {"experiment": "Stability of freeze-dried formulations, related substances by reverse phase HPLC, storage at 40° C.", "assay_type": "physicochemical", "description": "as §1"}}, "note": "*1 amine or outer side, *2 acyl side, *3 side chain or, on linkers, in order; H or OH if unused. Where a SMILES comes first, the peptide text is derived from it. Bridges are numbered along the chain shown (N, C = ends). [ ]: non-standard residue; d: D form. The star is where a group is joined. ξ: configuration not given here. pTerphenylCO(4''-OnC5H11) = CCCCCOc1ccc(-c2ccc(-c3ccc(C(=O)*)cc3)cc2)cc1; ξOrn(4,5-diOH) = O=C(C(CC(O)C(O)N[*:3])N[*:1])[*:2]; ξhTyr(βξ-OH,γξ-OH) = NC(C(=O)O)C(O)C(O)c1ccc(O)cc1; ξPro(3ξ-OH,4ξ-Me) = CC1CNC(C(=O)O)C1O; Hyp = O=C(O)[CH]1C[CH](O)CN1"}
{"smiles": "CCCCCOc1ccc(-c2ccc(-c3ccc(C(=O)NC4CC(O)C(O)NC(=O)C5C(O)C(C)CN5C(=O)C(C(C)O)NC(=O)C(C(O)C(O)c5ccc(O)cc5)NC(=O)C5CC(O)CN5C(=O)C(C(C)O)NC4=O)cc3)cc2)cc1", "note": "(stereo not drawn) [Compound 6(a)] ({pTerphenylCO(4''-OnC5H11)}-[ξOrn(4,5-diOH)]T[Hyp][ξhTyr(βξ-OH,γξ-OH)]T[ξPro(3ξ-OH,4ξ-Me)]; lactam 1-C; configuration not given here)", "values": [{"measurement": "Percent Related Substances", "setting": "[1]; Man(50), 0 wks", "result": 3.68, "unit": "%"}, {"measurement": "Percent Related Substances", "setting": "[1]; Man(50), 2 wks", "result": 16.65, "unit": "%"}, {"measurement": "Percent Related Substances", "setting": "[1]; Man(50), 4 wks", "result": 23.68, "unit": "%"}, {"measurement": "Percent Related Substances", "setting": "[1]; co-solvent 1% PEG 3350, 0 wks", "result": 3.68, "unit": "%"}, {"measurement": "Percent Related Substances", "setting": "[1]; co-solvent 1% PEG 3350, 2 wks", "result": 21.56, "unit": "%"}, {"measurement": "Percent Related Substances", "setting": "[1]; co-solvent 40% PEG 400, 0 wks", "result": 3.73, "unit": "%"}, {"measurement": "Percent Related Substances", "setting": "[1]; co-solvent 40% PEG 400, 2 wks", "result": 15.26, "unit": "%"}, {"measurement": "Percent Related Substances", "setting": "[1]; co-solvent 40% PEG 400, 4 wks", "result": 23.99, "unit": "%"}, {"measurement": "% Related Substances", "setting": "[2]; 6(a) Potency 1, Poly 80(25), Cit(1.9), Man(50), 0 wks", "result": 3.22, "unit": "%"}, {"measurement": "% Related Substances", "setting": "[2]; 6(a) Potency 1, Poly 80(25), Cit(1.9), Man(50), 2 wks", "result": 10.24, "unit": "%"}, {"measurement": "% Related Substances", "setting": "[2]; 6(a) Potency 1, Poly 80(25), Cit(1.9), Man(50), 4 wks", "result": 12.16, "unit": "%"}, {"measurement": "% Related Substances", "setting": "[2]; 6(a) Potency 1, Poly 80(25), Cit(9.6), Man(50), 0 wks", "result": 3.36, "unit": "%"}, {"measurement": "% Related Substances", "setting": "[2]; 6(a) Potency 1, Poly 80(25), Cit(9.6), Man(50), 2 wks", "result": 11.74, "unit": "%"}, {"measurement": "% Related Substances", "setting": "[2]; 6(a) Potency 1, Poly 80(25), Cit(9.6), Man(50), 4 wks", "result": 18.63, "unit": "%"}, {"measurement": "% Related Substances", "setting": "[2]; 6(a) Potency 1, Poly 80(25), Cit(19.2), Man(50), 0 wks", "result": 3.37, "unit": "%"}, {"measurement": "% Related Substances", "setting": "[2]; 6(a) Potency 1, Poly 80(25), Cit(19.2), Man(50), 2 wks", "result": 17.29, "unit": "%"}, {"measurement": "% Related Substances", "setting": "[2]; 6(a) Potency 1, Poly 80(25), Cit(19.2), Man(50), 4 wks", "result": 22.61, "unit": "%"}, {"measurement": "% Related Substances", "setting": "[2]; 6(a) Potency 5, Poly 80(12.5), no B, Lac(10), Man(50), 0 wks", "result": 6.42, "unit": "%"}, {"measurement": "% Related Substances", "setting": "[2]; 6(a) Potency 5, Poly 80(12.5), no B, Lac(10), Man(50), 2 wks", "result": 6.98, "unit": "%"}, {"measurement": "% Related Substances", "setting": "[2]; 6(a) Potency 5, Poly 80(12.5), no B, Lac(10), Man(50), 4 wks", "result": 6.85, "unit": "%"}, {"measurement": "% Related Substances", "setting": "[2]; 6(a) Potency 8, Poly 80 (20), no B, Lac(10), Man(50), 0 wks", "result": 5.99, "unit": "%"}, {"measurement": "% Related Substances", "setting": "[2]; 6(a) Potency 8, Poly 80 (20), no B, Lac(10), Man(50), 2 wks", "result": 6.16, "unit": "%"}, {"measurement": "% Related Substances", "setting": "[2]; 6(a) Potency 8, Poly 80 (20), no B, Lac(10), Man(50), 4 wks", "result": 5.74, "unit": "%"}, {"measurement": "% Related Substances", "setting": "[2]; 6(a) Potency 10, Poly 80(25), Cit(9.6), Suc(5), Man(50), 0 wks", "result": 3.70, "unit": "%"}, {"measurement": "% Related Substances", "setting": "[2]; 6(a) Potency 10, Poly 80(25), Cit(9.6), Suc(5), Man(50), 2 wks", "result": 5.60, "unit": "%"}, {"measurement": "% Related Substances", "setting": "[2]; 6(a) Potency 10, Poly 80(25), Cit(9.6), Suc(5), Man(50), 4 wks", "result": 6.01, "unit": "%"}, {"measurement": "% Related Substances", "setting": "[2]; 6(a) Potency 10, Poly 80(25), Cit(9.6), Suc(10), Man(50), 0 wks", "result": 3.77, "unit": "%"}, {"measurement": "% Related Substances", "setting": "[2]; 6(a) Potency 10, Poly 80(25), Cit(9.6), Suc(10), Man(50), 2 wks", "result": 5.41, "unit": "%"}, {"measurement": "% Related Substances", "setting": "[2]; 6(a) Potency 10, Poly 80(25), Cit(9.6), Suc(10), Man(50), 4 wks", "result": 5.88, "unit": "%"}, {"measurement": "% Related Substances", "setting": "[2]; 6(a) Potency 10, Poly 80(25), Cit(9.6), Suc(50), no BA, 0 wks", "result": 3.60, "unit": "%"}, {"measurement": "% Related Substances", "setting": "[2]; 6(a) Potency 10, Poly 80(25), Cit(9.6), Suc(50), no BA, 2 wks", "result": 5.4, "unit": "%"}, {"measurement": "% Related Substances", "setting": "[2]; 6(a) Potency 10, Poly 80(25), Cit(9.6), Suc(50), no BA, 4 wks", "result": 6.01, "unit": "%"}, {"measurement": "% Related Substances", "setting": "[2]; 6(a) Potency 10, Poly 80(25), Cit(9.6), Tre(50), no BA, 0 wks", "result": 3.73, "unit": "%"}, {"measurement": "% Related Substances", "setting": "[2]; 6(a) Potency 10, Poly 80(25), Cit(9.6), Tre(50), no BA, 2 wks", "result": 4.83, "unit": "%"}, {"measurement": "% Related Substances", "setting": "[2]; 6(a) Potency 10, Poly 80(25), Cit(9.6), Tre(50), no BA, 4 wks", "result": 6.19, "unit": "%"}, {"measurement": "% Related Substances", "setting": "[2]; 6(a) Potency 10, Poly 80(25), Tar(1.13), Fru(10), Man(50), 0 wks", "result": 2.49, "unit": "%"}, {"measurement": "% Related Substances", "setting": "[2]; 6(a) Potency 10, Poly 80(25), Tar(1.13), Fru(10), Man(50), 4 wks", "result": 2.42, "unit": "%"}, {"measurement": "% Related Substances", "setting": "[2]; 6(a) Potency 10, Poly 80(25), no B, Lac(10), Man(50) (first of two identical lines), 0 wks", "result": 4.56, "unit": "%"}, {"measurement": "% Related Substances", "setting": "[2]; 6(a) Potency 10, Poly 80(25), no B, Lac(10), Man(50) (first of two identical lines), 2 wks", "result": 4.51, "unit": "%"}, {"measurement": "% Related Substances", "setting": "[2]; 6(a) Potency 10, Poly 80(25), no B, Lac(10), Man(50) (first of two identical lines), 4 wks", "result": 4.85, "unit": "%"}, {"measurement": "% Related Substances", "setting": "[2]; 6(a) Potency 10, Poly 80(25), no B, Lac(10), Man(50) (second of two identical lines), 0 wks", "result": 4.06, "unit": "%"}, {"measurement": "% Related Substances", "setting": "[2]; 6(a) Potency 10, Poly 80(25), no B, Lac(10), Man(50) (second of two identical lines), 2 wks", "result": 5.47, "unit": "%"}, {"measurement": "% Related Substances", "setting": "[2]; 6(a) Potency 10, Poly 80(25), no B, Lac(10), Man(50) (second of two identical lines), 4 wks", "result": 5.17, "unit": "%"}, {"measurement": "% Related Substances", "setting": "[2]; 6(a) Potency 10, Poly 80(25), no B, PEG6000(10), Man(50), 0 wks", "result": 4.13, "unit": "%"}, {"measurement": "% Related Substances", "setting": "[2]; 6(a) Potency 10, Poly 80(25), no B, PEG6000(10), Man(50), 2 wks", "result": 4.47, "unit": "%"}, {"measurement": "% Related Substances", "setting": "[2]; 6(a) Potency 10, Poly 80(25), no B, PEG6000(10), Man(50), 4 wks", "result": 8.11, "unit": "%"}, {"measurement": "% Related Substances", "setting": "[2]; 6(a) Potency 10, Poly 80(25), no B, PEG8000(10), Man(50), 0 wks", "result": 3.97, "unit": "%"}, {"measurement": "% Related Substances", "setting": "[2]; 6(a) Potency 10, Poly 80(25), no B, PEG8000(10), Man(50), 2 wks", "result": 4.23, "unit": "%"}, {"measurement": "% Related Substances", "setting": "[2]; 6(a) Potency 10, Poly 80(25), no B, PEG8000(10), Man(50), 4 wks", "result": 6.73, "unit": "%"}, {"measurement": "% Related Substances", "setting": "[2]; 6(a) Potency 10, Poly 80(25), no B, Suc(10), Man(50), 0 wks", "result": 4.26, "unit": "%"}, {"measurement": "% Related Substances", "setting": "[2]; 6(a) Potency 10, Poly 80(25), no B, Suc(10), Man(50), 2 wks", "result": 4.82, "unit": "%"}, {"measurement": "% Related Substances", "setting": "[2]; 6(a) Potency 10, Poly 80(25), no B, Suc(10), Man(50), 4 wks", "result": 4.49, "unit": "%"}, {"measurement": "% Related Substances", "setting": "[2]; 6(a) Potency 10, Poly 80(25), no B, no SA, Man(50), 0 wks", "result": 3.98, "unit": "%"}, {"measurement": "% Related Substances", "setting": "[2]; 6(a) Potency 10, Poly 80(25), no B, no SA, Man(50), 2 wks", "result": 4.85, "unit": "%"}, {"measurement": "% Related Substances", "setting": "[2]; 6(a) Potency 10, Poly 80(25), no B, no SA, Man(50), 4 wks", "result": 5.45, "unit": "%"}]}
